Measurements published in PubChem BioAssay (NCI).
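Cells were grown in 96-well plates and exposed to each compound for 48 hours at five concentrations; endpoints were interpolated linearly between bracketing concentrations, or set to the highest concentration if not reached. GI50: concentration for 50% inhibition of growth. TGI marks complete inhibition of growth.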

Test system: DMS 273 small cell lung
Assay: DTP human tumour cell line panel, 48 h

| SMILES | TGI | GI50 |
| --- | --- | --- |
| CCCCCCCCCCCCCCCCOP(=O)(O)Oc1ccc(/C=C\c2ccc(OP(=O)(O)OCCCCCCCCCCCCCCCC)cc2)cc1 | 62.4 µM |  |
| CCN(CC)C(=O)C/C(C)=N/NC(=O)c1ccncc1 | > 100 µM |  |
| CN(C)C(=S)/N=c1\ss/c(=N\C(=S)N(C)C)n1-c1ccc2c(c1)OCO2 | > 100 µM |  |
| Cc1ccc(N=NC(C(=O)c2ccccc2)C(=O)c2ccccc2)cc1 | 58.8 µM |  |
| Cc1ccc(NC(=O)C2C(=O)N(c3ccc(C)c(C)c3)C(=O)/C2=N/O)cc1C (configuration not stated) | > 100 µM |  |
| Nc1c(-c2ccc(Br)cc2)[n+]([O-])c2ccccc2[n+]1[O-] | > 100 µM |  |
| C#CC[C@]12CC(=O)CC[C@H]1CC(=O)C2 | > 100 µM |  |
| CNC=O.[O]=[Ge].[O]=[Ge].[O]=[Ge].[O]=[Ge][OH].[O]=[Ge][OH] | > 100 µM |  |
| N#CCCN(c1ccc(/C=C2\N=C(c3ccc(Cl)cc3)OC2=O)cc1)S(=O)(=O)c1ccccc1 | > 100 µM |  |
| O=C(/C=C/c1ccccc1Cl)c1ccccc1Cl | 31.1 µM |  |
| COC(=O)C1=C(c2ccc3c(c2)OCO3)O[C@H](c2ccc3c(c2)OCO3)[C@H]1COC(C)=O | > 100 µM |  |
| CC(C)=[CH][Sb]([Br])([CH]=C(C)C)([CH]=C(C)C)[CH]=C(C)C | 56.8 µM | 5.98 µM |
| CCC1(O)C(=O)OCc2c1cc1n(c2=O)Cc2cc3c(N)cccc3nc2-1 (configuration not stated) | 0.209 µM |  |
| CCOC(=O)[C@H]1Nc2ccc(C)cc2C2c3ccccc3CC21 (some centres not stated) | > 100 µM |  |
| N#CCCN(CCC#N)c1ccc(/C=C2\N=C(CN3C(=O)c4ccccc4C3=O)OC2=O)cc1 | > 100 µM |  |
| COc1ccc(C(=O)O)c(Cc2cccc3ccccc23)c1 | > 100 µM |  |

| SMILES | TGI | GI50 |
| --- | --- | --- |
| CC#CC(=O)Nc1ccccc1CC(c1c[nH]c2ccccc12)c1c[nH]c2ccccc12 | 32.7 µM |  |
| NCCCNCCSSCCCCS(=O)O | > 100 µM |  |
| COC(=O)C(=O)C(C(=O)C=C(C)C)C(=O)C(=O)Nc1ccc(Cl)cc1C (configuration not stated) | > 100 µM |  |
| Cc1cccc(C(C)(C)C)c1NC(=O)CCc1n[nH]c(=S)o1 | > 100 µM |  |
| CN(C)C(=S)SN(C)C(=O)Nc1ccccc1 | 77.6 µM |  |
| Cc1ccc(C(=O)/C=C/c2ccccc2O)c(C)c1 | > 100 µM |  |
| O=S(O)CCCCSSCCCCSSCCCCS(=O)O | > 100 µM |  |
| N#Cc1cnsc1 | > 100 µM |  |
| CC(=O)SCCC1c2[nH]c3ccccc3c2CCN1O (configuration not stated) | > 100 µM |  |
| CCOC(=O)NC(=O)c1cn(CCCOC(=O)NCCCCCCNC(=O)OCCCn2c(=O)c(C(=O)NC(=O)OCC)cn(C)c2=O)c(=O)n(C)c1=O | > 100 µM |  |
| O=C1C2=C(CC3C(C2)C3(Br)Br)C(=O)C2=C1CC1C(C2)C1(Br)Br (configuration not stated) | > 100 µM |  |
| CC(C)=CC(=O)N1CCN(C(=O)C=C(C)C)CC1 | > 100 µM |  |
| CC(=O)c1ccc(NC(=O)/C(Cc2ccccn2)=N/NC(=O)C[N+](C)(C)C)cc1 | > 100 µM |  |
| CCc1cccc(C)c1NC(C)=O | > 100 µM |  |
| O=C(CC(=O)N1N=C(c2ccccc2)C(N=Nc2ccc(Cl)cc2)C1=O)Nc1ccccc1Cl (configuration not stated) | > 100 µM |  |

Test system: PC-3 prostate
Assay: DTP human tumour cell line panel, 48 h

| SMILES | TGI | GI50 |
| --- | --- | --- |
| O=c1[nH]c(=O)n(C2CC(O)C(CS)O2)cc1F (configuration not stated) | > 100 µM |  |
| CCC1(O)C(=O)OCc2c1cc1n(c2=O)Cc2cc3c(N)cccc3nc2-1 (configuration not stated) | > 100 µM |  |
| Cc1cc(C2CCCCC2)n(O)c(=O)c1 | > 100 µM | 3.02 µM |
| CN(C)C(=S)SN(C)C(=O)Nc1ccccc1 | > 100 µM |  |

Test system: DLD-1 colon
Assay: DTP human tumour cell line panel, 48 h

| SMILES | TGI | GI50 |
| --- | --- | --- |
| CCCCCCCCCCCCCCCCOP(=O)(O)Oc1ccc(/C=C\c2ccc(OP(=O)(O)OCCCCCCCCCCCCCCCC)cc2)cc1 | > 100 µM |  |
| O=c1[nH]c(=O)n(C2CC(O)C(CS)O2)cc1F (configuration not stated) | > 100 µM |  |
| CCN(CC)C(=O)C/C(C)=N/NC(=O)c1ccncc1 | > 100 µM |  |
| COC(=O)C(=O)C(C(=O)C(=O)Nc1ccc(C)cc1C)c1nc2ccccc2[nH]c1=O (configuration not stated) | > 100 µM |  |
| Cc1ccc(N=NC(C(=O)c2ccccc2)C(=O)c2ccccc2)cc1 | 76 µM |  |
| Cc1ccc(NC(=O)C2C(=O)N(c3ccc(C)c(C)c3)C(=O)/C2=N/O)cc1C (configuration not stated) | > 100 µM |  |
| Nc1c(-c2ccc(Br)cc2)[n+]([O-])c2ccccc2[n+]1[O-] | > 100 µM |  |
| C#CC[C@]12CC(=O)CC[C@H]1CC(=O)C2 | > 100 µM |  |
| CNC=O.[O]=[Ge].[O]=[Ge].[O]=[Ge].[O]=[Ge][OH].[O]=[Ge][OH] | > 100 µM |  |
| N#CCCN(c1ccc(/C=C2\N=C(c3ccc(Cl)cc3)OC2=O)cc1)S(=O)(=O)c1ccccc1 | > 100 µM |  |
| Cc1cc(NS(=O)(=O)c2ccc(NC(=O)c3cccc4c(=O)c5ccccc5[nH]c34)cc2)no1 | > 100 µM |  |
| O=C(/C=C/c1ccccc1Cl)c1ccccc1Cl | 33.4 µM |  |
| COC(=O)C1=C(c2ccc3c(c2)OCO3)O[C@H](c2ccc3c(c2)OCO3)[C@H]1COC(C)=O | > 100 µM |  |
| CC(C)=[CH][Sb]([Br])([CH]=C(C)C)([CH]=C(C)C)[CH]=C(C)C | > 100 µM | 37.3 µM |
| CCC1(O)C(=O)OCc2c1cc1n(c2=O)Cc2cc3c(N)cccc3nc2-1 (configuration not stated) | > 56.4 µM |  |
| CCOC(=O)[C@H]1Nc2ccc(C)cc2C2c3ccccc3CC21 (some centres not stated) | > 100 µM |  |
| CSc1nc(NC2OC(COC(C)=O)C(OC(C)=O)C(OC(C)=O)C2OC(C)=O)c2c(OC(C)=O)c(C)c(=O)oc2n1 (configuration not stated) | > 100 µM |  |
| O=C(NC1CCCCCC1)C1C(=O)N(C2CCCCCC2)C(=O)/C1=N\O (configuration not stated) | > 100 µM |  |
| COc1ccc(C(=O)O)c(Cc2cccc3ccccc23)c1 | > 100 µM |  |
| CC#CC(=O)Nc1ccccc1CC(c1c[nH]c2ccccc12)c1c[nH]c2ccccc12 | 36.3 µM |  |
| NCCCNCCSSCCCCS(=O)O | > 100 µM |  |
| Cc1cc(C2CCCCC2)n(O)c(=O)c1 | > 100 µM |  |
| COC(=O)C(=O)C(C(=O)C=C(C)C)C(=O)C(=O)Nc1ccc(Cl)cc1C (configuration not stated) | > 100 µM |  |
| Cc1cccc(C(C)(C)C)c1NC(=O)CCc1n[nH]c(=S)o1 | > 100 µM |  |
